In patent US8946282B2, “Indolin-2-one derivatives as protein kinase inhibitors” (Annji Pharmaceutical Co., Ltd., priority 2012, dated 2015) one finds inhibition, melting point and IC50 data, which are given here for 20 compounds.

What is called inhibition is the percentage by which the read-out fell short of the control. One may read the melting point as the temperature of the solid-liquid transition. One may read the IC50 as the midpoint of a concentration-inhibition curve.

Series [1] has as its target aurora B (Homo sapiens, UniProt Q96GD4). As to the kind of experiment: radioisotope-based P81 filter-binding assay, aurora B kinase. It is filed as biochemical. The settings on record: for inhibition at 1 µM: compound at 1.0 μM, mean values (n=2), read-out: percent inhibition of enzyme catalytic activity, Aur B (numbers in parentheses); for IC50: averaged from two independent dose-response curves, read-out: Enzyme assay IC50 Aur B. As to the method: (§1) Compounds of formula (I)-(IV) were evaluated for abilities in inhibiting protein kinases aurora B and FLT-3 activity using radioisotope-based P81 filter-binding assay (Table 1).

The target in series [2] is T1, FLT-3 (Homo sapiens, UniProt P36888).
T1 sequence (P36888 27-993): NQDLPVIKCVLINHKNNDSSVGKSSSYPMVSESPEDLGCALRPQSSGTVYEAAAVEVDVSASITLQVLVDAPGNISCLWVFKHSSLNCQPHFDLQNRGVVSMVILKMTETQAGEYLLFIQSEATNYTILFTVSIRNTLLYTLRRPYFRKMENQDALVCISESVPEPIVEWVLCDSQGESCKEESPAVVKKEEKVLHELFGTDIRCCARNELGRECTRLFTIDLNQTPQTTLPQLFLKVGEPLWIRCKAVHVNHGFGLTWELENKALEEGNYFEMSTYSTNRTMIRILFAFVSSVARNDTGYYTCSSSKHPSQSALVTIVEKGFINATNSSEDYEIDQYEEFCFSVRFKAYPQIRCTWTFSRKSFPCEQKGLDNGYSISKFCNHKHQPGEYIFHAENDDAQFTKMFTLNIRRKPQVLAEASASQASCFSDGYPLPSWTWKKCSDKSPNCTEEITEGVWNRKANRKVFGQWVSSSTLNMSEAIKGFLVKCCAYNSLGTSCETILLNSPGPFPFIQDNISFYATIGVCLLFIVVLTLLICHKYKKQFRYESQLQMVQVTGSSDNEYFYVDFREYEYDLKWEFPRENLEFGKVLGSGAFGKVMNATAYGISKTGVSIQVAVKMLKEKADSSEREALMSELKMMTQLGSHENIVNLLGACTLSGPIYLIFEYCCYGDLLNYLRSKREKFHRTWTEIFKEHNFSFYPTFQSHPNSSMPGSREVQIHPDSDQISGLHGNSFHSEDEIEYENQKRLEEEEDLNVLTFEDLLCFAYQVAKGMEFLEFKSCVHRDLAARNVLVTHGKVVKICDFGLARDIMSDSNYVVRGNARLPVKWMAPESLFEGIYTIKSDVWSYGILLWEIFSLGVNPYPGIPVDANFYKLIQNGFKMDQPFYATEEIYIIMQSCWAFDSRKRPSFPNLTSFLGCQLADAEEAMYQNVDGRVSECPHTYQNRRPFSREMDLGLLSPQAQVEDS
As to the kind of experiment: radioisotope-based P81 filter-binding assay, FLT-3 kinase. The settings on record: for inhibition at 1 µM: compound at 1.0 μM, mean values (n=2), read-out: percent inhibition of enzyme catalytic activity, FLT-3 (numbers in parentheses); for IC50: averaged from two independent dose-response curves, read-out: Enzyme assay IC50 FLT-3. Type of series: biochemical. The procedure: as §1

Chain of aurora B (Q96GD4 whole entry): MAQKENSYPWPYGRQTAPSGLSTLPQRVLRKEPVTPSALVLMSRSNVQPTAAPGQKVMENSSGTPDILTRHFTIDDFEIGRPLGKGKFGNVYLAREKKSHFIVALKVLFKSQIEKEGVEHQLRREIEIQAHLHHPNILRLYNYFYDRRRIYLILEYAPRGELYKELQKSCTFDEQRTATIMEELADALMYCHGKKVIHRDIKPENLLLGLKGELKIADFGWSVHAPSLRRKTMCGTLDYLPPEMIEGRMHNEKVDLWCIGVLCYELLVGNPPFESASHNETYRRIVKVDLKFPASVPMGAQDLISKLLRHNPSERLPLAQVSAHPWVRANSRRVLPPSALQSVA

Regarding `COc1ccc(C(=O)NC(=O)Nc2ccc3c(c2)NC(=O)/C3=C/c2ccccc2)cc1` [D17, (E)-N-(3-benzylidene-2-oxoindolin-6-ylcarbamoyl)-4-methoxybenzamide], the melting point is 277 to 282 °C (dec.). Also, the inhibition at 1 µM in series [1] worked out at 61.2%. Besides, the inhibition at 1 µM in series [2] was found to be 34.4%.
As for `COc1ccc(N2CCN(C(=O)Nc3ccc4c(c3)NC(=O)/C4=C\c3ccc[nH]3)C2=O)cc1` [D91, (Z)—N-(3-((1H-pyrrol-2-yl)methylene)-2-oxoindolin-6-yl)-3-(4-methoxyphenyl)-2-oxoimidazolidine-1-carboxamide], the melting point is 294 to 299 °C (dec.). Besides, in series [1], the inhibition at 1 µM came to 25.3%. Besides, the inhibition at 1 µM in series [2] is 26%.
With `CCOC(=O)c1c(C)[nH]c(/C=C2\C(=O)Nc3cc(NC(=O)NC(=O)c4ccc(OC)cc4F)ccc32)c1C` [D62, (Z)-ethyl-5-((6-(3-(2-fluoro-4-methoxybenzoyl)ureido)-2-oxoindolin-3-ylidene)methyl)-2,4-dimethyl-1H-pyrrole-3-carboxylate], the melting point was 278 to 283 °C (dec.). In addition, in series [1], the IC50 turned out to be 1720 nM. For the same compound, in series [2], the half-inhibitory concentration (IC50) stood at 2980 nM.
On the same counts, the results for `O=C1Nc2cc(NC(=O)N3CCN(C4CC4)C3=O)c(F)cc2/C1=C/c1ccc[nH]1` [D82, (Z)—N-(3-((1H-pyrrol-2-yl)methylene)-5-fluoro-2-oxoindolin-6-yl)-3-cyclopropyl-2-oxoimidazolidine-1-carboxamide] are > 300 °C, 10.7 nM and 3330 nM.
With `Cc1c[nH]cc(C(=O)Nc2ccc3c(c2)NC(=O)/C3=C\c2ccc[nH]2)c1=O` [D139, (Z)—N-(3-((1H-pyrrol-2-yl)methylene)-2-oxoindolin-6-yl)-5-methyl-4-oxo-1,4-dihydropyridine-3-carboxamide], the melting point was > 300 °C. The IC50 in series [1] was determined as 29.2 nM. In addition, the IC50 in series [2] turned out to be 64.2 nM.
For `COc1ccc(C(=O)NC(=O)Nc2ccc3c(c2)NC(=O)/C3=C\c2[nH]c(C)c(CC(=O)O)c2C)cc1` [D46], the melting point was 240 to 245 °C (dec.). The IC50 in series [1] amounted to 1.8 nM. Moreover, in series [2], the IC50 came to 31.7 nM.
Consider `COc1ccc(C(=O)NC(=O)Nc2ccc3c(c2)NC(=O)/C3=C\c2[nH]c(C)c(C(=O)O)c2C)c(F)c1` [D57, (Z)-5-((6-(3-(2-fluoro-4-methoxybenzoyl)ureido)-2-oxoindolin-3-ylidene)methyl)-2,4-dimethyl-1H-pyrrol-3-carboxylic acid], for which the melting point was 295 to 300 °C (dec.). Moreover, the IC50 in series [1] came to 2.3 nM. In addition, the IC50 in series [2] was determined as 111 nM.
On to `COc1ccc(C(=O)NC(=O)Nc2ccc3c(c2)NC(=O)/C3=C\c2[nH]c(C)c(C(=O)N3CCN(C)CC3)c2C)c(F)c1` [D64, (Z)—N-(3-((3,5-dimethyl-4-(4-methylpiperazine-1-carbonyl)-1H-pyrrol-2-yl)methylene)-2-oxoindolin-6-ylcarbamoyl)-2-fluoro-4-methoxybenzamide], for which the melting point was 250 to 255 °C (dec.). In addition, the IC50 in series [1] was determined as 30.6 nM. Further, the 50% inhibitory concentration (IC50) in series [2] turned out to be 57.1 nM.
The like results for `O=C1Nc2cc(NC(=O)N3CCN(C4CC4)C3=O)ccc2/C1=C/c1ccc[nH]1` [D81, (Z)—N-(3-((1H-pyrrol-2-yl)methylene)-2-oxoindolin-6-yl)-3-cyclopropyl-2-oxoimidazolidine-1-carboxamide] were, in that order, 284 to 289 °C (dec.), 19.9 nM and 1800 nM.
Turning to `O=C1Nc2cc(NC(=O)N3CCN(c4cccc(Cl)c4)C3=O)ccc2/C1=C/c1ccc[nH]1` [D85, (Z)—N-(3-((1H-pyrrol-2-yl)methylene)-2-oxoindolin-6-yl)-3-(3-chlorophenyl)-2-oxoimidazolidine-1-carboxamide], the melting point was > 300 °C. The concentration for half-maximal inhibition (IC50) in series [1] came out at 14.3 nM. In series [2], the IC50 amounted to 1790 nM.
The like results for `Cc1[nH]c(/C=C2\C(=O)Nc3cc(NC(=O)NC(=O)c4ccc(C(F)(F)F)cc4)ccc32)c(C)c1C(=O)O` [D35, (Z)-2,4-dimethyl-5-((2-oxo-6-(3-(4-(trifluoromethyl)benzoyl)ureido)indolin-3-ylidene)methyl)-1H-pyrrole-3-carboxylic acid] were, in that order, > 300 °C, 3.1 nM and 231 nM.
As to `O=C1Nc2cc(NC(=O)N3CCN(c4ccc(Cl)cc4)C3=O)ccc2/C1=C/c1ccc[nH]1` [D84, (Z)—N-(3-((1H-pyrrol-2-yl)methylene)-2-oxoindolin-6-yl)-3-(4-chlorophenyl)-2-oxoimidazolidine-1-carboxamide], the melting point was > 300 °C. For the same compound, in series [1], the half-maximal inhibitory concentration (IC50) is > 10000 nM. Further, the IC50 in series [2] was 854 nM.
Regarding `O=C1Nc2cc(NC(=O)N3CCN(c4ccc(C(F)(F)F)cc4)C3=O)ccc2/C1=C/c1ccc[nH]1` [D88, (Z)—N-(3-((1H-pyrrol-2-yl)methylene)-2-oxoindolin-6-yl)-2-oxo-3-(4-(trifluoromethyl)phenyl)imidazolidine-1-carboxamide], the melting point is > 300 °C. The IC50 in series [1] was 824 nM. For the same compound, the IC50 in series [2] stood at 498 nM.
Turning to `Cc1[nH]c(/C=C2\C(=O)Nc3cc(NC(=O)c4cccn(C)c4=O)ccc32)c(C)c1C(=O)O` [D124, (Z)-2,4-dimethyl-5-((6-(1-methyl-2-oxo-1,2-dihydropyridine-3-carboxamido)-2-oxoindolin-3-ylidene)methyl)-1H-pyrrole-3-carboxylic acid], the melting point was > 300 °C. Further, the 50% inhibitory concentration (IC50) in series [1] worked out at 14.3 nM. Also, the IC50 in series [2] came out at 4.2 nM.
The like results for `O=C1Nc2ccc(NC(=O)c3cccn(-c4ccc(F)cc4)c3=O)cc2/C1=C/c1ccc[nH]1` [D104, (Z)—N-(3-((1H-pyrrol-2-yl)methylene)-2-oxoindolin-5-yl)-1-(4-fluorophenyl)-2-oxo-1,2-dihydropyridine-3-carboxamide] were, in that order, > 300 °C, > 1000 nM and > 1000 nM.
The like results for `COc1ccc(N2CCN(C(=O)Nc3ccc4c(c3)NC(=O)/C4=C\c3[nH]c(C)c(C(=O)O)c3C)C2=O)cc1` [D95, (Z)-5-((6-(3-(4-methoxyphenyl)-2-oxoimidazolidine-1-carboxamido)-2-oxoindolin-3-ylidene)methyl)-2,4-dimethyl-1H-pyrrole-3-carboxylic acid] were, in that order, 267 to 272 °C (dec.), 3.7 nM and 39.4 nM.
With `COc1ccc(C(=O)NC(=O)Nc2ccc3c(c2)NC(=O)/C3=C\c2ccc(C(=O)O)[nH]2)cc1` [D45, (Z)-5-((6-(3-(4-methoxybenzoyl)ureido)-2-oxoindolin-3-ylidene)-methyl)-1H-pyrrole-2-carboxylic acid], the melting point was 286 to 291 °C (dec.). In addition, in series [1], the inhibition at 1 µM was 20.9%. In addition, in series [2], the inhibition at 1 µM was 10%.
Consider `Cc1ccc(N2CCN(C(=O)Nc3ccc4c(c3)NC(=O)/C4=C\c3ccc[nH]3)C2=O)cc1` [D92, (Z)—N-(3-((1H-pyrrol-2-yl)methylene)-2-oxoindolin-6-yl)-2-oxo-3-p-tolylimida-zolidine-1-carboxamide], for which the melting point is > 300 °C. Moreover, the IC50 in series [1] was determined as 19.3 nM. The IC50 in series [2] amounted to 223 nM.
With `COc1ccc(/C=C2/C(=O)Nc3cc(NC(=O)NC(=O)c4ccc(OC)cc4)ccc32)cc1` [D19, (E)-4-methoxy-N-(3-(4-methoxybenzylidene)-2-oxoindolin-6-yl-carbamoyl)benzamide], the melting point was 274 to 279 °C (dec.). Moreover, the inhibition at 1 µM in series [1] was determined as 55.9%. In series [2], the inhibition at 1 µM was found to be 43.2%.
In the case of `O=C1Nc2cc(NC(=O)N3CCN(c4ccc(Cl)c(Cl)c4)C3=O)ccc2/C1=C/c1ccc[nH]1` [D86, (Z)—N-(3-((1H-pyrrol-2-yl)methylene)-2-oxoindolin-6-yl)-3-(3,4-dichlorophenyl)-2-oxoimidazolidine-1-carboxamide], the melting point was > 300 °C. The IC50 in series [1] was 145 nM. Also, in series [2], the IC50 was 501 nM.
